One data set concerns the target RPE65 (Bos taurus (Bovine), UniProt Q28175). Briefly: RPE65 retinoid isomerase activity assay (11-cis-retinol production by bovine RPE microsomes). The format is biochemical. The note with it: for IC50: inhibition of RPE65-mediated isomerization, decline in 11-cis-retinol production, bovine RPE microsomes. As for the experimental part:
After incubation at room temperature for 5 min, the resulting mixture was mixed with half microliter of all-trans-retinol (5 mM) in DMF, and then incubated at 37° C. for 1 h. The reaction was quenched by adding 400 μL of methanol (Fisher Chemical, Fair Lawn, NJ), and the products were extracted with 400 μL of hexanes.

The nature of data set [1]: Quantification of primary amine compound levels in serum and eyes of mice after intraperitoneal treatment (LC-MS/MS). The format is in vivo. The note with it: mouse, 380 nmol i.p.; for initial plasma (serum) level: 3 h. As for the experimental part: Eight weeks old BL/6J mice were treated with 380 nmol visual cycle modulator 24, 49, 57, 58, 59 or emixustat in DMSO (50 μL) by intraperitoneal injection, and sacrificed at 3 h, 1 day, or 7 days later. Blood and eyeball samples were collected immediately. After clotting at room temperature for 30 min, the blood samples were centrifuged for 10 minutes at 17,000 g in a temperature-controlled benchtop centrifuge (Eppendorf AG). Each serum sample (100 μL) was carefully removed to avoid disturbing loose clots, precipitated with […] of pre-cooled methanol, and centrifuged at 17,000 g for 15 min at 4° C. The supernatant was carefully transferred to a SpinX centrifuge tube filter with a 0.45 μm cellulose acetate membrane (Costar, Salt Lake City, UT), and centrifuged at 7,000 g for 2 min. Filtered samples were dried under vacuum, reconstituted in 100 μL 50% methanol/water, and centrifuged at 17,000 g for 15 min at 4° C. The resulting supernatants were ready for Liquid Chromatography/Mass Spectrometry analyses. The two eyeballs from each mouse were homogenized in acetonitrile (2×800 μL). The resulting mixture was centrifuged at 17,000 g for 15 min at 4° C. The supernatant was dried under vacuum, reconstituted in 100 μl 50% methanol/water, and centrifuged at 17,000 g for 15 min at 4° C. Twenty microliters of the supernatant extracted from serum or eye samples was injected into an Ultimate 3000 HPLC system coupled with LXQ mass spectrometer (ThermoFisher Scientific, Waltham, MA) with an electrospray ionization unit.

Where [2] appears, read: RPE65 inhibition, ratio of IC50.

SMILES strings stand for the structures. Several values for one entry are separate records, joined by “and”; a condition that tells them apart may be missing. Equal values may be shown once. Entries after “also recorded” stand apart in the source; their conditions may differ.

Sequence of RPE65 (Q28175 whole entry): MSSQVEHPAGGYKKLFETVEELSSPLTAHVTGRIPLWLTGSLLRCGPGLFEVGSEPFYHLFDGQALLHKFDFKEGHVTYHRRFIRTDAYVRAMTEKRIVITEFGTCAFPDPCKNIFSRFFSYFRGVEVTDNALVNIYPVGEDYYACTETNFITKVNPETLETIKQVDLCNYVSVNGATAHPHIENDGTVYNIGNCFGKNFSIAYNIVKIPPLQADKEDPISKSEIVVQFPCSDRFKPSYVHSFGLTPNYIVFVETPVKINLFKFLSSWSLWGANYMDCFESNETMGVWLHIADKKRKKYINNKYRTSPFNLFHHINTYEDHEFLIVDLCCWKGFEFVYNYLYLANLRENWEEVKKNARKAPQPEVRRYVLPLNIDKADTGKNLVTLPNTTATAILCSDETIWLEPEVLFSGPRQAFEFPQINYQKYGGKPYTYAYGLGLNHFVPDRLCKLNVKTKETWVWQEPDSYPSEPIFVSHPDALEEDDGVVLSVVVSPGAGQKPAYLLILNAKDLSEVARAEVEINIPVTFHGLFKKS

Turning to `CCCC(CCC)COc1cc(F)cc(C(O)CCN)c1` (racemic) [Compound 25, (S/R)-3-amino-1-(3-fluoro-5-((2-propylpentyl)oxy)phenyl)propan-1-ol], the 50% inhibitory concentration (IC50) (commonly the concentration that gives 50% inhibition) against RPE65 amounted to 295 ± 132 nM.
On the same count and under the same terms, then `CCCC(CCC)COc1cc(F)cc(C(O)CCN)c1` (racemic) [Compound 26, (S/R)-3-amino-1-(3-fluoro-5-((2-propylpentyl)oxy)phenyl)propan-1-ol], with 184 ± 24 nM.
Same read-out and setting: under `CCCC(CCC)COc1ccc(F)c(C(O)CCN)c1` (racemic) [Compound 27, (S/R)-3-amino-1-(2-fluoro-5-((2-propylpentyl)oxy)phenyl)propan-1-ol] stands 157 ± 24 nM; under `CCCC(CCC)COc1ccc(F)c(C(O)CCN)c1` (racemic) [Compound 28, (S/R)-3-amino-1-(2-fluoro-5-((2-propylpentyl)oxy)phenyl)propan-1-ol], 132 ± 19 nM; under `CCCC(CCC)COc1cccc(C(O)CCN)c1F` (racemic) [Compound 29, (S/R)-3-amino-1-(2-fluoro-3-((2-propylpentyl)oxy)phenyl)propan-1-ol], 287 ± 283 nM.
In turn, `CCCC(CCC)COc1cccc(C(O)CCN)c1F` (racemic) [Compound 30, (S/R)-3-amino-1-(2-fluoro-3-((2-propylpentyl)oxy)phenyl)propan-1-ol] registered an IC50 on RPE65 of 274 ± 47 nM.
Same read-out and setting: under `CC1=C(COc2cccc([C@H](O)CCN)c2)C(C)(C)CCC1` [(R)-MB-001, reference compound] stands 323 ± 145 nM; under `CCCC(CCC)COc1cccc([C@H](O)CCN)c1` [(R)-MB-004, reference compound], 106 ± 16 nM; under `CCCC(CCC)COc1cc([C@@H](O)CCN)ccc1F` [Compound 23, (S)-3-Amino-1-(4-fluoro-3-((2-propylpentyl)oxy)phenyl)propan-1-ol], 177 ± 11 nM.
Regarding `CCCC(CCC)COc1cc([C@H](O)CCN)ccc1F` [Compound 24, (R)-3-Amino-1-(4-fluoro-3-((2-propylpentyl)oxy)phenyl)propan-1-ol], in data set [1], the “distribution within ocular tissue” value is on record as “poorest distribution within ocular tissue”, the plasma half-life entry is recorded as “longer plasma half-life” and the “initial plasma (serum) level” value is “highest initial plasma levels”. Moreover, at RPE65 (setting [2]), the “inhibitory potency / IC50 relative to (R)-MB-004” value was “twice; also recorded: approximately two-fold lower” and the “inhibitory potency relative to racemic emixustat” value is reported as 3 times. The midpoint of inhibition against RPE65, the IC50, lay at 50 ± 9 nM.
Consider `NCCC(O)c1ccc(F)c(OCC2CCCCC2)c1` (stereo not shown) [Compound 49, 3-amino-1-(3-(cyclohexylmethoxy)-4-fluorophenyl)propan-1-ol], for which, in data set [1], the “distribution within ocular tissue” value is recorded as “poorest distribution within ocular tissue” and the “initial plasma (serum) level” value is listed as “highest initial plasma levels”. Also, the IC50 on RPE65 is 95 ± 5 nM.
Regarding `NCCC(O)c1cc(F)cc(OCC2CCCCC2)c1` (stereo not shown) [Compound 50, 3-amino-1-(3-(cyclohexylmethoxy)-5-fluorophenyl)propan-1-ol], it took 201 ± 23 nM to reach half-maximal inhibition against RPE65 (IC50).
The same measure, in the same setting: under `NCCC(O)c1cc(OCC2CCCCC2)ccc1F` (stereo not shown) [Compound 51, 3-amino-1-(5-(cyclohexylmethoxy)-2-fluorophenyl)propan-1-ol] stands 145 ± 9 nM; under `NCCC(O)c1cccc(OCC2CCCCC2)c1F` (stereo not shown) [Compound 52, 3-amino-1-(3-(cyclohexylmethoxy)-2-fluorophenyl)propan-1-ol], 358 ± 42 nM; under `CC1=C(COc2cc(C(O)CCN)ccc2F)C(C)(C)CCC1` (stereo not shown) [Compound 53, 3-amino-1-(4-fluoro-3-((2,6,6-trimethylcyclohex-1-en-1-yl)methoxy)phenyl)propan-1-ol], 284 ± 20 nM.
With `CC1=C(COc2cc(F)cc(C(O)CCN)c2)C(C)(C)CCC1` (stereo not shown) [Compound 54, 3-amino-1-(3-fluoro-5-((2,6,6-trimethylcyclohex-1-en-1-yl)methoxy)phenyl)propan-1-ol], on RPE65, inhibition was half-maximal at 292 ± 89 nM (IC50).
Same read-out and setting: then `CC1=C(COc2ccc(F)c(C(O)CCN)c2)C(C)(C)CCC1` (stereo not shown) [Compound 55, 3-amino-1-(2-fluoro-5-((2,6,6-trimethylcyclohex-1-en-1-yl)methoxy)phenyl)propan-1-ol], with 124 ± 21 nM; and `CC1=C(COc2cccc(C(O)CCN)c2F)C(C)(C)CCC1` (stereo not shown) [Compound 56, 3-amino-1-(2-fluoro-3-((2,6,6-trimethylcyclohex-1-en-1-yl)methoxy)phenyl)propan-1-ol], with 169 ± 13 nM.
As to `NCCC(O)c1cccc(OCC2CCC(F)(F)CC2)c1` (stereo not shown) [Compound 57, 3-amino-1-(3-((4,4-difluorocyclohexyl)methoxy)phenyl) propan-1-ol], in data set [1], the “distribution within ocular tissue” value was “further enhanced ocular distribution”. For the same molecule, the IC50 at RPE65 was 100 nM and 103 nM.
Consider `[2H]C([2H])(N)CC(O)c1cccc(OCC2CCC(F)(F)CC2)c1` (stereo not shown) [Compound 59, 3-amino-1-(3-((4,4-difluorocyclohexyl)methoxy)phenyl)propan-3,3-d2-1-ol], for which the concentration for half-maximal inhibition (IC50) against RPE65 turned out to be 269 ± 40 nM.

The record behind these values is patent US20240122876A1, “COMPOSITIONS AND METHODS FOR THE TREATMENT OF OCULAR DISORDERS” (Case Western Reserve University, priority 2021, published 2024).
